Reference: US7198782B2, “Method for the treatment of diabetes” (priority 1998, dated 2007)

Key:
[1] = test system: secretion of gastric acid; assay: Inhibitory effect on the secretion of gastric acid in rats (Example 7); format: in vivo, rats (Wister line); details: peptide 10 μg/kg with gastrin 4 μg/kg, hypodermic injection, gastric juice pH 10 minutes later, control pH 3.2 / 3.1
Experimental: The inhibitory effect on the secretion of gastric acid was evaluated using rats (Wister line), by dissolving in physiological saline, the peptides synthesized in Example 6 and gastrin, a stimulator of gastric acid secretion, hypodermically injecting the previous solution, and measuring the secretion of gastric acid 10 minutes later. Gastrin was administered to obtain a dose of 4 μg/kg and the peptides of the invention were administered to obtain a dose of 10 μg/kg. The rats were immobilized on a fixator, their gastric juice was sampled by inserting a probe through the mouth into the stomach, and the pH was measured to evaluate the secretion of gastric acid. When the secretion of gastric acid was compared between the reference group with no substance administered and the administered group, the following was obtained for the inhibition on the secretion of gastric acid.

BxPC-3 cells [2] = assay: Stimulation of insulin production by insulin producing cells, BxPC-3 cells (Example 5); format: cell-based, human; details: 12 hours, no substance added = 100%
Experimental: (§1) HIT cells, which are insulin producing hamster pancreatic cells, and BxPC-3 cells, which are human pancreatic cells (source: Dai Nippon Seiyaku), were cultured in RPMI 1640 media (source: Dai Nippon Seiyaku) containing 10% calf fetal serum, and grown with 5% carbon dioxide gas in a humidified incubator at 37° C. The cells were treated with trypsin for seeding 96-well culture plates with a density of 1×10^4/well; when the cells reached confluency, the media was exchanged to a F12 serum-free media and the cells were cultured for 8 hours. Then, the peptides of the invention produced in Example 4 were dissolved in serum-free RPMI 1640 media; various doses of the peptides indicated by the sequence number 1 for the HIT cells, and various doses of the peptides indicated by the sequence number 5 for the BxPC-3 cells, were added to the wells and the cultures were further maintained for 12 hours. After the cultures have been performed, the stimulatory effects of the peptides of the invention on the production of insulin by the cells were measured by the insulin immunoassay, to seek stimulatory effects on production in comparison to the non-treated groups. Also, the insulin immunoassay, and the calculations for the rates of stimulation for the production of insulin were actually performed as follows. Various dilutions of the supernatents from the cell culture media were added to the wells coated with immobilized anti-insulin antibodies, and reacted with anti-insulin antibody solutions, according to the protocol of the insulin assay kit commercialized by Shibayagi (Ltd.). The detection was by reacting the biotin labeling the antibodies with the steptavidin-conjugated peroxydase and measuring the coloration catalyzed by the peroxydase. The concentration of insulin was calculated from a standard curve for insulin. When examining the rates of stimulation for the production of insulin in the groups with various doses added, by taking the rate of stimulation for the production of insulin in the reference group with no substance added as 100%, the following was obtained.

BxPC-3 cells [3] = assay: Stimulating effect on insulin secretion, BxPC-3 cells (Example 3); format: cell-based, human; details: supernatant of BxPC-3 cells, 0.01 mg/well, 24 hours; control 37.6
Experimental: BxPC-3 cells which are insulin producing cells derived from a human pancreas (source: Dainippon Pharmaceutical Co.,Ltd. ), were cultured in RPMI 1640 media containing 10% calf fetal serum, and grown with 5% carbon dioxide gas in a humidified incubator at 37° C. The cells were treated with trypsin prior to seeding with a density of 1×10^5/well; when they reached confluency, the peptide of the invention synthesized in Example 2, the peptides A and B, which are unrelated to the invention and whose activities are unknown, as well as a control (physiological saline) were added at 0.01 mg/well, and the cells were cultured for 24 hours. Then, the concentrations of insulin present in the supernatents were measured by colorimetry with an insulin assaying kit (source: Shibayagi Co.,Ltd.).

HIT cells = assay: Stimulation of insulin production by insulin producing cells, HIT cells (Example 5); format: cell-based, hamster; details: for rate of stimulation for the production of insulin (%): HIT cells, 12 hours, no substance added = 100%
Experimental: as §1

GH3 cells = assay: Stimulation of growth hormone production by growth hormone producing cells (Example 9); format: cell-based, Hamster; details: 3 days, no peptides added = 100%
Experimental: Hamster-derived GH3 cells (source: IFO, deposition No. 50105), which are growth hormone-producing hypophyseal cells, were grown in an F12 media (source: Dai Nippon Seiyaku) containing 15% calf fetal serum, and grown with 5% carbon dioxide gas in a humidified incubator at 37° C. The cells were treated with trypsin for seeding 96-well culture plates with a density of 1×10^4/well; when the cells reached confluency, the media was exchanged to a 15% serum F12 media and the cells were cultured for 12 hours. Then, the peptides of the invention produced in Example 7 were dissolved in 15% serum F12 media to add various doses of the peptides to the wells, and the cultures were further maintained for 3 days. After the cultures have been performed, the stimulatory effects of the peptides on the production of growth hormones by the cells were measured by the growth hormone immunoassay, to examine stimulatory the effects on the production, in comparison with the non-treated groups. Also, the growth hormone immunoassay was performed with a method of the art, the sandwich ELISA, i.e., various dilutions of the supernatents from the cell culture media were added to wells coated with immobilized anti-growth hormone antibodies, and reacted for 180 minutes at room temperature, washed before further addition of anti-growth hormone antibodies labeled with peroxydase, and reacted for 60 minutes at room temperature. After washing, the coloring reaction catalyzed by the peroxydase was measured by measuring the absorbance. The concentration of growth hormone was examined based on standard curves obtained by performing the same sandwich ELISA using already known concentrations of growth hormone. When examining the rates of stimulation for the production of growth hormones in the groups with various doses added, by taking the rate of stimulation for the production of growth hormone for the reference group with no peptides added as 100%, the following was obtained.

Sequence No. 4: peptide predicted by comparing the cDNA sequences of the gastrin receptor; gastric acid secretion regulator (MSVGGNMLIIV; Artificial polypeptide having inhibitory effect on gastric acid secretion)
Gastric juice pH [1]: 4.8 pH

sequence number 5: peptide predicted from glucagon receptor cDNAs, variant of sequence number 1; increases insulin production (PQVPSAQ; Artificial polypeptide having inhibitory effects on insulin secretion)
rate of stimulation for the production of insulin (%) (BxPC-3 cells [2]; 0.01 μg/well): 110.9% | rate of stimulation for the production of insulin (%) (BxPC-3 cells [2]; 0.1 μg/well): 123.3% | rate of stimulation for the production of insulin (%) (BxPC-3 cells [2]; 1 μg/well): 198.2% | rate of stimulation for the production of insulin (%) (BxPC-3 cells [2]; 10 μg/well): 181.1%

Sequence No. 3: peptide predicted by comparing the cDNA sequences of the gastrin receptor; gastric acid secretion regulator (GGAGP; Artificial polypeptide which regulates insulin production.)
Gastric juice pH [1]: 5.3 pH

peptide of the invention: peptide synthesized in Example 2, printed as having the amino acid sequence of sequence number 2 (GIP receptor derived insulin production regulator) (VGRDPAAAPALWRRRGTAPPLSAIVSQV; Artificial peptide which regulates insulin production)
insulin concentration (BxPC-3 cells [3]): 148 µg/mL

sequence number 1: peptide of the missing (spliced) region predicted from glucagon receptor cDNAs; increases insulin production (PKAPSAQ; Artificial polypeptide which inhibits insulin production.)
rate of stimulation for the production of insulin (%) (HIT cells; 0.01 μg/well): 102.8% | rate of stimulation for the production of insulin (%) (HIT cells; 0.1 μg/well): 131.6% | rate of stimulation for the production of insulin (%) (HIT cells; 1 μg/well): 184.9% | rate of stimulation for the production of insulin (%) (HIT cells; 10 μg/well): 203.1% | production of insulin by insulin producing cells (HIT cells; summary in the description, cells and dose not named): increased significantly

sequence number 6: peptide predicted by comparing the amino acid sequences of somatostatin receptor; growth hormone production regulator (PSCQWVQAPACQ; Artificial polypeptide which promotes growth hormone secretion.)
stimulation rate of growth hormone production (%) (GH3 cells; 0.01 μg/well): 101.2% | stimulation rate of growth hormone production (%) (GH3 cells; 0.1 μg/well): 124.1% | stimulation rate of growth hormone production (%) (GH3 cells; 1 μg/well): 175.6% | stimulation rate of growth hormone production (%) (GH3 cells; 10 μg/well): 190.4%
